Type in all cases: functional
One assay concerns Micrococcus luteus. As to the kind of experiment: Antimicrobial activity against Micrococcus luteus.
Another assay has as its system Staphylococcus aureus. The assay is described as follows: Antimicrobial activity against Staphylococcus aureus.
In assay [1] the test system is Trichophyton mentagrophytes. As to the kind of experiment: Antimicrobial activity against Trichophyton mentagrophytes.
The test system of a further assay is Cryptococcus neoformans. As to the kind of experiment: Antimicrobial activity against Cryptococcus neoformans.
For another assay, the system named is Candida albicans. As to the kind of experiment: Antimicrobial activity against Candida albicans.
A further assay deals with Aspergillus niger. The assay is described as follows: Antimicrobial activity against Aspergillus niger.

Each structure is given as a SMILES string. Values after ≈ are worked out from the molar mass of the structure shown.

Turning to `NCCCOc1c(Br)cc(C/C(=N\O)C(=O)NCCc2nc(N)[nH]c2-c2cc(O)c3[nH]cc(O)c(=O)c3c2O)cc1Br` [TYROKERADINE B], the MIC in the assay with Micrococcus luteus amounted to 25 µg/mL (≈ 35.2 µM); against Staphylococcus aureus it was 25 µg/mL (≈ 35.2 µM); in assay [1], 25 µg/mL (≈ 35.2 µM); against Cryptococcus neoformans it was 12.5 µg/mL (≈ 17.6 µM); in the assay on Candida albicans it was 12.5 µg/mL (≈ 17.6 µM); against Aspergillus niger it was 12.5 µg/mL (≈ 17.6 µM).

Take `C[N+](C)(C)CCCOc1c(Br)cc(C/C(=N\O)C(=O)NCCc2nc(N)[nH]c2-c2cc(O)c3[nH]cc(O)c(=O)c3c2O)cc1Br` [TYROKERADINE A]: the MIC (with Micrococcus luteus; in the assay on Staphylococcus aureus; in assay [1]; against Cryptococcus neoformans; against Candida albicans; with Aspergillus niger) was greater than 25 µg/mL each time.

The values are drawn from ChEMBL document CHEMBL1153275, “Tyrokeradines A and B, new bromotyrosine alkaloids with an imidazolyl-quinolinone moiety from a verongid sponge” (2009).
